The compounds below were run on HBV (assay: HBV-DNA Antiviral Assay Using HepG2.117 Cells). Conditions: Hepatitis B virus, HepG2.117, 96 h, intracellular HBV DNA by qPCR, day 4.
Format: cell-based
Method: The following assay procedure describes the HBV antiviral assay, using HepG2.117 cells, which carry a stably integrated genotype D HBV genome under the control of a Tet-off promoter, and intracellular HBV DNA quantification as endpoint. Cell viability is assessed in parallel by measuring the intracellular ATP content using ATPlite (Perkin Elmer).
On day 0, HepG2.117 cells (which are maintained in routine cell culture with doxycycline present in the medium at a final concentration of 1 μg/mL) were seeded in 96-well plates (white with clear bottom) at a density of 2.0×10^4 cells/well (0.1 mL/well) in medium without doxycycline to induce pgRNA transcription and subsequent formation of HBV particles. The cells were incubated at 37° C. and 5% CO2.
On day 1, medium was removed from each well, the test articles were diluted in culture medium without doxcycyline and 100 μL was added to cell culture wells (9 concentrations, 4-fold dilution). For each plate, 6 untreated (merely DMSO) wells were included. The final concentration of DMSO in the culture medium was 2%. Each plate was prepared in duplicate (one for HBV DNA extraction, one for ATPlite measurement). The cells were incubated at 37° C. and 5% CO2 for 3 days.
On day 4, cell viability was assessed using ATPlite and cell lysates were prepared for HBV DNA extraction and subsequent quantification by qPCR.
Medium was removed from each well and 100 μL of 0.33% NP-40 in H2O was added to each well. Plates were sealed, incubated at 4° C. for 5 mins, vortexed extensively and centrifuged briefly. Next, 35 μL of lysate was added to 65 μL QuickExtract DNA Extraction Solution (Epicentre) in a PCR plate for each well. PCR plate was incubated at 65° C. for 6 mins, 98° C. for 2 mins and finally cooled to 4° C. HBV DNA was then quantified by qPCR with HBV-specific primers and probes as specified in Table 2 using the Bio-Rad SSOAdvanced Universal Probes Supermix on a CFX96 machine (Bio-Rad). The PCR cycle program consisted of 95° C. for 3 mins, followed by 40 cycles at 95° C. for 10 sec and 60° C. for 30 sec.
A DNA standard was prepared by dilution of an IDT gBlock corresponding to the amplicon with concentrations ranging from 10^2 to 10^8 copies/input (i.e. per 4 μL) and used to generate a standard curve by plotting Cq values vs. HBV DNA standard concentration. The quantity of HBV DNA in each sample was determined by interpolating from the standard curve.
Cell viability was calculated as follows: % Cell viability=(luminescence value of test sample)/(average luminescence value of 2% DMSO control)×100%. HBV DNA inhibition was calculated as follows: 100−(HBV DNA copy number of test sample)/(average HBV DNA copy number of 2% DMSO control)×100%. No normalization to entecavir was required due to the excellent dynamic window of this assay. The CC50, EC so and EC90 values were determined by dose-response curves fitted by GraphPad Prism using “log (agonist) vs. response—Variable slope”.

Row | Structure (SMILES) | EC50 [µM]
1 | N=S1(=O)CCN(C(=O)Nc2ccc(F)c(Cl)c2)CC1c1cccs1 (stereo not drawn) [Compound 17, N-(3-chloro-4-fluoro-phenyl)-1-imino-1-oxo-2-(2-thienyl)-1,4-thiazinane-4-carboxamide] | 0.5 to 5
2 | C[C@H]1CS(=O)(=O)[C@H](c2cccs2)CN1C(=O)Nc1ccc(F)c(Cl)c1 [Compound 20, (2S,5S)—N-(3-chloro-4-fluoro-phenyl)-5-methyl-1,1-dioxo-2-(2-thienyl)-1,4-thiazinane-4-carboxamide] | 0.5 to 5
3 | C[C@H]1CS(=O)(=O)[C@@H](c2cccs2)CN1C(=O)Nc1ccc(F)c(Cl)c1 [Compound 21, (2R,5S)—N-(3-chloro-4-fluoro-phenyl)-5-methyl-1,1-dioxo-2-(2-thienyl)-1,4-thiazinane-4-carboxamide] | 0.1 to 0.5
4 | C[C@@H]1CS(=O)(=O)[C@H](c2cccs2)CN1C(=O)Nc1ccc(F)c(Cl)c1 [Compound 23, (2S,5R)-N-(3-chloro-4-fluorophenyl)-5-methyl-1,1-dioxo-2-(thiophen-2-yl)-1,4-thiomorpholine-4-carboxamide] | 0.5 to 5
5 | C[C@@H]1CS(=O)(=O)[C@@H](c2cccs2)CN1C(=O)c1ccc(Br)c(Cl)c1 [Compound 25, (4-bromo-3-chloro-phenyl)-[(2R,5R)-5-methyl-1,1-dioxo-2-(2-thienyl)-1,4-thiazinan-4-yl]methanone] | 0.5 to 5
6 | C[C@@H]1CS(=O)(=O)[C@H](c2cccs2)CN1C(=O)c1ccc(Br)c(Cl)c1 [Compound 26, (4-bromo-3-chloro-phenyl)-[(2S,5R)-5-methyl-1,1-dioxo-2-(2-thienyl)-1,4-thiazinan-4-yl]methanone] | 0.5 to 5
7 | O=C(c1ccc(Br)c(Cl)c1)N1CCS(=O)(=O)C(c2nccs2)C1 (stereo not drawn) [Compound 27, (4-bromo-3-chloro-phenyl)-(1,1-dioxo-2-thiazol-2-yl-1,4-thiazinan-4-yl)methanone] | 0.1 to 0.5
8 | O=C(c1ccc(Br)c(Cl)c1)N1CCS(=O)(=O)C(c2nnco2)C1 (stereo not drawn) [Compound 28, (4-bromo-3-chloro-phenyl)-[2-(1,3,4-oxadiazol-2-yl)-1,1-dioxo-1,4-thiazinan-4-yl]methanone] | 0.5 to 5
9 | Cc1cnc(C2CN(C(=O)c3ccc(Br)c(Cl)c3)CCS2(=O)=O)s1 (stereo not drawn) [Compound 29, (4-bromo-3-chloro-phenyl)-[2-(5-methylthiazol-2-yl)-1,1-dioxo-1,4-thiazinan-4-yl]methanone] | ≤ 0.1
10 | O=C(c1ccc(Br)c(Cl)c1)N1CCS(=O)(=O)C(c2ncc(Cc3ccccc3)s2)C1 (stereo not drawn) [Compound 30, (2-(5-benzylthiazol-2-yl)-1,1-dioxidothiomorpholino)(4-bromo-3-chlorophenyl)methanone] | 0.1 to 0.5
11 | O=C(c1ccc(Br)c(Cl)c1)N1CCS(=O)(=O)C(c2nc(Cc3ccccc3)cs2)C1 (stereo not drawn) [Compound 31, (2-(4-benzylthiazol-2-yl)-1,1-dioxidothiomorpholino)(4-bromo-3-chlorophenyl)methanone] | 0.1 to 0.5
12 | O=C(c1ccc(Cl)c(Cl)c1)N1CCS(=O)(=O)C(c2nccs2)C1 (stereo not drawn) [Compound 32] | 0.5 to 5
13 | C[C@@]1(C(=O)NCc2ccccc2)CN(C(=O)c2ccc(Br)c(Cl)c2)CCS1(=O)=O [Compound 33a] | 0.1 to 0.5
14 | C[C@]1(C(=O)NCc2ccccc2)CN(C(=O)c2ccc(Br)c(Cl)c2)CCS1(=O)=O [Compound 33b] | 0.5 to 5
15 | CC1(c2nccs2)CN(C(=O)c2ccc(Br)c(Cl)c2)CCS1(=O)=O (stereo not drawn) [Compound 34] | 0.5 to 5
16 | O=C(c1ccc(Br)c(Cl)c1)N1CCS(=O)(=O)[C@](F)(C(=O)NCc2ccccc2)C1 [Compound 35a] | ≤ 0.1
17 | O=C(c1ccc(Br)c(Cl)c1)N1CCS(=O)(=O)[C@@](F)(C(=O)NCc2ccccc2)C1 [Compound 35b] | 0.5 to 5
18 | O=C(c1ccc(Br)c(Cl)c1)N1CCS(=O)(=O)[C@](F)(c2ncc(Cc3ccccc3)s2)C1 [Compound 37a, (4-bromo-3-chloro-phenyl)-[(2S)-2-(5-benzylthiazol-2-yl)-2-fluoro-1,1-dioxo-1,4-thiazinan-4-yl]methanone] | ≤ 0.1

Row | Structure (SMILES) | EC50 [µM]
19 | O=C(c1ccc(Br)c(Cl)c1)N1CCS(=O)(=O)[C@@](F)(c2ncc(Cc3ccccc3)s2)C1 [Compound 37b, (4-bromo-3-chloro-phenyl)-[(2R)-2-(5-benzylthiazol-2-yl)-2-fluoro-1,1-dioxo-1,4-thiazinan-4-yl]methanone] | 0.5 to 5
20 | O=C(c1ccc(Br)c(Cl)c1)N1CCS(=O)(=O)[C@](F)(C(=O)NCCc2ccccc2)C1 [Compound 38a] | > 5
21 | O=C(c1ccc(Br)c(Cl)c1)N1CCS(=O)(=O)[C@@](F)(C(=O)NCCc2ccccc2)C1 [Compound 38b] | 0.5 to 5
22 | O=C(c1ccc(Br)c(Cl)c1)N1CCS(=O)(=O)[C@@](F)(c2ncc(-c3ccccc3)s2)C1 [Compound 39] | 0.5 to 5
23 | N#Cc1cc(C(=O)N2CCS(=O)(=O)[C@](F)(c3ncc(Cc4ccccc4)s3)C2)ccc1Br [Compound 40a] | 0.5 to 5
24 | N#Cc1cc(C(=O)N2CCS(=O)(=O)[C@@](F)(c3ncc(Cc4ccccc4)s3)C2)ccc1Br [Compound 40b] | ≤ 0.1
25 | C[C@H](c1ccccc1)c1cnc([C@@]2(F)CN(C(=O)c3ccc(Br)c(Cl)c3)CCS2(=O)=O)s1 [Compound 41a] | ≤ 0.1
26 | C[C@@H](c1ccccc1)c1cnc([C@@]2(F)CN(C(=O)c3ccc(Br)c(Cl)c3)CCS2(=O)=O)s1 [Compound 41b] | ≤ 0.1
27 | C[C@H](c1ccccc1)c1cnc([C@]2(F)CN(C(=O)c3ccc(Br)c(Cl)c3)CCS2(=O)=O)s1 [Compound 41c] | 0.5 to 5
28 | C[C@@H](c1ccccc1)c1cnc([C@]2(F)CN(C(=O)c3ccc(Br)c(Cl)c3)CCS2(=O)=O)s1 [Compound 41d] | 0.5 to 5
29 | C[C@@H](c1cnc([C@@]2(F)CN(C(=O)c3ccc(Br)c(C#N)c3)CCS2(=O)=O)s1)c1ccccc1F [Compound 43a] | ≤ 0.1
30 | C[C@H](c1cnc([C@@]2(F)CN(C(=O)c3ccc(Br)c(C#N)c3)CCS2(=O)=O)s1)c1ccccc1F [Compound 43b] | ≤ 0.1
31 | C[C@@H](c1cnc([C@]2(F)CN(C(=O)c3ccc(Br)c(C#N)c3)CCS2(=O)=O)s1)c1ccccc1F [Compound 43c] | 0.5 to 5
32 | C[C@H](c1cnc([C@]2(F)CN(C(=O)c3ccc(Br)c(C#N)c3)CCS2(=O)=O)s1)c1ccccc1F [Compound 43d] | 0.5 to 5
33 | N#Cc1cc(C(=O)N2CCS(=O)(=O)[C@@](F)(c3ncc(Cc4ccccc4-c4ncccn4)s3)C2)ccc1Br [Compound 45a] | ≤ 0.1
34 | N#Cc1cc(C(=O)N2CCS(=O)(=O)[C@](F)(c3ncc(Cc4ccccc4-c4ncccn4)s3)C2)ccc1Br [Compound 45b] | 0.5 to 5
35 | O=C(c1ccc(Br)c(Cl)c1)N1CCS(=O)(=O)[C@@](F)(c2ncc(Cc3ccccc3)o2)C1 [Compound 46a, (R)-(2-(5-benzyloxazol-2-yl)-2-fluoro-1,1-dioxidothiomorpholino)(4-bromo-3-chlorophenyl)methanone] | ≤ 0.1
36 | COc1ccc(Cc2cnc([C@]3(F)CN(C(=O)c4ccc(Br)c(Cl)c4)CCS3(=O)=O)s2)c(OC)c1 [Compound 49a] | 0.5 to 5

Source: patent US11464783B2, “Heterocyclic compounds” (Aligos Therapeutics, Inc., priority 2019, dated 2022)
